The values below come from patent publication US5691365A, “Nicotinic receptor antagonists in the treatment of neuropharmacological disorders” (University of Kentucky Research Foundation, priority 1995, dated 1997).

“And” between values parts separate entries of the source, which are not always exact repeats. Equal entries are not always repeated. “Also recorded” adds a separate entry of the source. Where two headings read alike, the source gives them in different places.

One data set is described as follows: physchem. On the procedure: (§1) pKa Determination. A solution [1 g in 12 mls of deuterium oxide 100% atom D] of the compound under investigation was gradually acidified by drop-wise addition of a solution of DC1 to D2 O (20% wt/wt, 99.5% atom D). The pD values were measured on a Corning pH meter. For each pD value, a sample (0.8 mls) was analyzed by ^1 H-NMR on a Varian Unity 300 MHz spectrometer using sodium 3(trimethylsilyl)-2,2,3,3-d4 -propionate (TSP) as internal reference. Protonation of the pyrrolidine- and pyridine-N atoms was followed by observing the variation in chemical shift of the N-1'-methyl and 2'-proton signals from pO 8.8 to pD 3.0. A titration curve of pD vs chemical shift was constructed to determine the pKa values of pyrrolidino-N atom and/or the pyridine-N atom.
as §1, with “Computational Chemistry.” for “pKa Determination.”, “3-(trimethylsilyl)-2,2,3,3-d4” for “3(trimethylsilyl)-2,2,3,3-d4”, “N-1'methyl” for “N-1'-methyl”, “pD” for “pO”

Data set [1] relates to S(-)nicotine (10 μM)-evoked [^3 H]DA release from rat striatal slices. It is filed as cell-based. On the procedure:
(§2) Biological Methods. Male Spragua-Dawley rats (150-200 g) were obtained from Harlan Laboratories (Indianapolis, Ind.) and were housed two per cage with free access to food and water in the Division of Lab Animal Resources at the College of Pharmacy at the University of Kentucky. Experimental protocols involving the animals were approved by the Institutional Animal Care and Use Committee at the University of Kentucky.
(§3) [^3 H]DA Release Assay. Rat striatal slices (500 μm thickness, 6-8 mg wet weight) were obtained as previously described (Dwoskin and Zahniser, 1986). Slices were incubated for 30 min in Krebs' buffer ([…]; 118 NaCl, 4.7 KCl, 1.2 MgCl2, 1.0 NaH2 PO4, 1.3 CaCl2, […], 11.1 glucose, 25 NaHCO3, 0.11 L-ascorbic acid nd 0.004 disodium EDTA; pH 7.4 and saturated with 95% O2 /5% CO2) in a metabolic shaker at 34°. Slices were rinsed with 15 ml of fresh buffer and incubated for an additional 30 min in fresh buffer containing 0.1 μM [^3 H]dopamine (6 slices/3 ml). Subsequently, slices were rinsed with 15 ml of fresh buffer and transferred to a glass superfusion chamber. Slices were superfused (1.0 ml/min) for 60 min with Krebs' buffer containing nomifensine (10 μm) and pargyline (10 μm) and maintained at 34° C., pH 7.4 with continual aeration (95% O2 /5% CO2). Two 5-min samples (5 ml) were collected to determine basal outflow of [^3 H]DA. N-Substituted nicotine analogues were added to the superfusion buffer after the collection of the second sample and remained in the buffer until 12 consecutive 5-min samples were collected. […] At the end of the experiment each slice was solubilized and the [^3 H] content of the tissue determined.
(§4) Radioactivity in the superfusate and tissue samples was determined by liquid scintillation spectroscopy. Fractional release for each superfusate sample was calculated by dividing the total tritium collected in each sample by the total tritium present in the tissue at the time of sample collection. Basal [^3 H]out flow was calculated from the average of the tritium collected in the two 5-min samples just before addition of the N-substituted nicotine analogue. The sums of the increase in collected tritium resulting from either exposure to the test compound or exposure to nicotine in the absence and presence of the test compound equaled total [^3 H]overflow. [^3 H]overflow was calculated by subtracting the [^3 H]outflow during an equivalent period of prestimulation from the values in samples collected during and after drug exposure. Inasmuch as the radiolabelled compounds were not separated and identified, the tritium collected in superfusate is referred to as either [^3 H]outflow or [^3 H]overflow, rather than as [^3 H]DA. [^3 H]Overflow primarily represents [^3 H]DA in the presence of nomifensine and pargyline in the superfusion buffer (Zumstein et al. 1981).
In these experiments, the striatal slices were superfused for 60 min with various concentrations of the analogues prior to nicotine (10 μM) exposure. Antagonist activity was evaluated by comparing the nicotine-evoked [^3 H]overflow in the absence and presence of the analogues. […] The relative order of potency of the classical and pyridine-N substituted nicotine analogues for inhibition of nicotine-evoked [^3 H]DA release from rat striatal slices is illustrated in FIG. 2 by a comparison of their IC50 values.
FIG. 2. IC50 values for N-substituted analogues of nicotine, nornicotine, and cotinine to inhibit nicotine-evoked [^3 H]DA release from rat striatal slices. Inhibition produced by the classical nicotinic inhibitors, mecamylamine (MEC) and DHBE was also determined. Slices were superfused with inhibitor for 60 min […] co-superfusion with 10 μM nicotine. Inhibition was determined by comparing [^3 H]DA release in the absence and presence of various concentrations of inhibitor. IC50 values were determined using the Logit-log plot (pseudo-Hill plot). […] IC50 for each animal was determined as the intercept of the linear regression.

In data set [2] the test system is [^3 H]DA release from rat striatal slices. The experiment in a line: [3H]DA release assay: compound-evoked (intrinsic agonist) release. It counts as cell-based. The procedure: as §2, §3, §4
Data set [3] deals with rat striatal synaptosomes. Particulars: cited from earlier work.
Data set [4] has as its system rat hypothalamic and corticotropin-releasing hormone secretion. Particulars: cited from earlier work.
[5] abbreviates: Table 3, 1 μM, mean ± S.E.M., rat striatal slices.
The mark [6] stands for this setting: Table 3, 10 μM, mean ± S.E.M., rat striatal slices.
The mark [7] stands for this setting: Table 3, 100 μM, mean ± S.E.M., rat striatal slices.

For the compound `C=CC[n+]1cccc([C@@H]2CCCN2C)c1` [NANI, S-N-allylnicotiniumiodide], in the data set “physchem” (d2o, pKa of pyrrolidino-N (N'-amino) functionality, 1H-NMR), the pKa turned out to be 6.4. Moreover, in “physchem” (physiological pH), the predominant ionization form entry is given as “exist predominantly in their unprotonated form at physiological pH”. Further, the “nicotinic antagonist activity / inhibition of nicotine-evoked [3H]DA release (in words)” value in data set [1] is “Significant antagonist activity; also recorded: significantly lower potency and efficacy; also recorded: possessing antagonist activity; also recorded: preferred nicotinic receptor antagonist activity”. Moreover, the “relative order of potency for inhibition of nicotine-evoked [3H]DA release (comparison of IC50 values)” value in data set [1] is given as “NBNB=NPNI=NnNBI=NANI>NHENI”. The “total [3H]overflow (effect on [3H]DA release)” value in data set [2] (setting [5]) was 0.02 ± 0.02; in data set [2] (setting [6]), 0.07 ± 0.04; in data set [2] (setting [7]), 0.08 ± 0.03.

`CCCCCCCC[n+]1cccc([C@@H]2CCCN2C)c1` [NONI, S-N-octylnicotinium iodide]: in data set [1], the “nicotinic antagonist activity / inhibition of nicotine-evoked [3H]DA release (in words)” value is “Significant antagonist activity; also recorded: completely inhibited nicotine-evoked [^3 H]DA release; also recorded: Greatest antagonist potency; also recorded: preferred nicotinic receptor antagonist activity; also recorded: most efficacious and potent compound in the series; also recorded: completely blocked the effect of nicotine to evoke [^3 H]DA release”. Moreover, the “potency relative to mecamylamine and dihydro-β-erythroidine” value in data set [1] was “approximately half that of the classical nicotinic antagonists”. The “relative order of potency for inhibition of nicotine-evoked [3H]DA release (comparison of IC50 values)” value in data set [1] was “NONI>>DHBE=MEC”. In data set [1] (fold higher), the “concentration for intrinsic agonist activity relative to that required to completely inhibit nicotine-evoked [3H]DA release” value was 10 fold. Moreover, the “agonist activity relative to nicotine” value in data set [2] is reported as “three-times the agonist activity of nicotine”. Moreover, the “total [3H]overflow (effect on [3H]DA release)” value in data set [2] (setting [5]) came out at 0.03 ± 0.02; in data set [2] (setting [6]), 0.14 ± 0.14; in data set [2] (setting [7]) it was 16.4 ± 2.00. Moreover, the “effect on [3H]DA release / intrinsic agonist activity (in words)” value was “possessed intrinsic agonist activity at this high concentration; also recorded: did not possess agonist activity at concentrations which completely blocked nicotine-evoked [^3 H]DA release” in data set [2] (rat striatal slices, 1-100 μM); “evoked [^3 H]DA release and thus, possess intrinsic agonist activity at this concentration” in data set [2] (rat striatal slices, 1-100 μM, listed as HONI).

With `CCC[n+]1cccc([C@@H]2CCCN2C)c1` [NPNI, S-N-propyl nicotinium iodide], in data set [1], the “nicotinic antagonist activity / inhibition of nicotine-evoked [3H]DA release (in words)” value was “Significant antagonist activity; also recorded: significantly lower potency and efficacy; also recorded: preferred nicotinic receptor antagonist activity”. The “relative order of potency for inhibition of nicotine-evoked [3H]DA release (comparison of IC50 values)” value in data set [1] is recorded as “NBNB=NPNI=NnNBI=NANI>NHENI”. Moreover, the “total [3H]overflow (effect on [3H]DA release)” value in data set [2] (setting [5]) was 0.06 ± 0.01; in data set [2] (setting [6]), 0.03 ± 0.03; in data set [2] (setting [7]) it was 0.03 ± 0.03.

As for `CCCC[n+]1cccc([C@@H]2CCCN2C)c1` [NnBNI, S-N-nbutyl nicotinium iodine], the “nicotinic antagonist activity / inhibition of nicotine-evoked [3H]DA release (in words)” value in data set [1] was “Significant antagonist activity; also recorded: significantly lower potency and efficacy; also recorded: preferred nicotinic receptor antagonist activity”. In addition, the “relative order of potency for inhibition of nicotine-evoked [3H]DA release (comparison of IC50 values)” value in data set [1] is “NBNB=NPNI=NnNBI=NANI>NHENI”. The “total [3H]overflow (effect on [3H]DA release)” value is 0.00 ± 0.00 in data set [2] (setting [5]), 0.01 ± 0.01 in data set [2] (setting [6]) and 0.01 ± 0.01 in data set [2] (setting [7]).

Take `C[N+]1(C)CCC[C@H]1c1cccnc1` [PIPNMN, S-N'-methyl nicotinium iodide]: the “nicotinic antagonist activity / inhibition of nicotine-evoked [3H]DA release (in words)” value in data set [1] is on record as “did not exhibit significant nicotinic antagonist activity over the concentration range tested”. Further, the “relative order of potency for inhibition of nicotine-evoked [3H]DA release (comparison of IC50 values)” value in data set [1] is reported as “NMNI=S-N-methylcotininium iodide (NMCI)=S-N'-methyl nicotinium iodide (PIPNMN)”. Also, the “total [3H]overflow during cosuperfusion with 10 μM nicotine” value in data set [1] was 3.16 ± 1.46 and 2.98 ± 1.48 and 1.88 ± 0.77. For the same compound, the “total [3H]overflow (effect on [3H]DA release)” value in data set [2] (setting [5]) is on record as 0.03 ± 0.03; in data set [2] (setting [6]) it was 0.01 ± 0.01; in data set [2] (setting [7]) it was 0.05 ± 0.02.

Regarding `O=c1cccc2n1C[C@@H]1CNC[C@H]2C1` [S(-)cytisine, reference compound], in data set [3], the “effect on [3H]dopamine release from rat striatal synaptosomes” value is “lesser effect of cytisine compared to nicotine in evoking dopamine release from rat striatal synaptosomes”. Moreover, in data set [2], the “effect on [3H]DA release / intrinsic agonist activity (in words)” value is listed as “only marginally released dopamine from the striatal slice”; the “total [3H]overflow (effect on [3H]DA release)” value was 0.67 ± 0.26 and 0.85 ± 0.38 and 1.13 ± 0.46. The Emax in data set [2] (Rattus norvegicus, read-out: evoked [3H]DA release relative to nicotine) is approximately 20%.

As for `CN1[C@@H]2CC[C@H]1C[C@@H](OC(=O)C(CO)c1ccccc1)C2` (stereo partly shown) [atropine], the “effect on IR-rCRH secretion (in words)” value in data set [4] was “This effect was antagonized by the simultaneous presence of atropine and hexamethonium”.

With `C[N+](C)(C)CCOC(N)=O` [carbachol], the “effect on IR-rCRH secretion (in words)” value in data set [4] (in vitro, p less than 0.05 for antagonists of acetylcholine) is “stimulated IR-rCRH secretion in a dose-dependent fashion”.

With `C[N+](C)(C)CCCCCC[N+](C)(C)C` [hexamethonium], the “effect on IR-rCRH secretion (in words)” value in data set [4] is “This effect was antagonized by the simultaneous presence of atropine and hexamethonium”.
